Measured values published in the supplement of paper PMC13207355.

Key:
Conditions in all cases: exposure time: 72 h
E13 [1] = patient-derived glioblastoma stem cells of classical subtype; experiment: surviving fraction (nuclei count normalised to DMSO); higher = more cells surviving (less toxic)
E21 [2] = patient-derived glioblastoma stem cells of mesenchymal subtype; experiment: as above
E28 [3] = patient-derived glioblastoma stem cells of classical subtype; experiment: as above
E31 [4] = patient-derived glioblastoma stem cells of proneural subtype; experiment: as above
E34 [5] = patient-derived glioblastoma stem cells of proneural subtype; experiment: as above
E57 [6] = patient-derived glioblastoma stem cells of mesenchymal subtype; experiment: as above
FT3469 [7] = normal neural stem cell line; experiment: as above
E13 [8] = experiment: phenotypic distance (Euclidean, principal components) from DMSO controls (arbitrary units); higher = stronger morphological change
E21 [9] = experiment: as above
E28 [10] = experiment: as above
E31 [11] = experiment: as above
E34 [12] = experiment: as above
E57 [13] = experiment: as above
FT3469 [14] = experiment: as above
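For phenotypic distance (Euclidean, principal components) from DMSO controls in this document: cell Painting imaging in 384-well plates, CellProfiler features reduced to at least 20 principal components, Euclidean distance versus same-plate DMSO vehicle wells (0.1% v/v), median over six images per well.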
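For surviving fraction (nuclei count normalised to DMSO) in this document: nuclei counted by high-content imaging of Hoechst-stained cells in laminin-coated 384-well plates, relative to 0.1% DMSO vehicle wells, with staurosporine as cell-death control.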

## CCc1c2c(nc3ccc(OC(=O)N4CCC(N5CCCCC5)CC4)cc13)-c1cc3c(c(=O)n1C2)COC(=O)[C@]3(O)CC [Irinotecan]
E13 [1]; 4.1 nM
  surviving fraction: 0.966
E13 [1]; 12.3 nM
  surviving fraction: 1.03
E13 [1]; 37 nM
  surviving fraction: 1
E13 [1]; 111.1 nM
  surviving fraction: 0.975
E13 [1]; 333.3 nM
  surviving fraction: 0.974
E13 [1]; 1000 nM
  surviving fraction: 0.784
E13 [1]; 3000 nM
  surviving fraction: 0.418
E21 [2]; 4.1 nM
  surviving fraction: 1.03
E21 [2]; 12.3 nM
  surviving fraction: 1.08
E21 [2]; 37 nM
  surviving fraction: 0.918
E21 [2]; 111.1 nM
  surviving fraction: 1.03
E21 [2]; 333.3 nM
  surviving fraction: 0.883
E21 [2]; 1000 nM
  surviving fraction: 0.589
E21 [2]; 3000 nM
  surviving fraction: 0.124
E28 [3]; 4.1 nM
  surviving fraction: 1.21
E28 [3]; 12.3 nM
  surviving fraction: 1.07
E28 [3]; 37 nM
  surviving fraction: 1.07
E28 [3]; 111.1 nM
  surviving fraction: 0.969
E28 [3]; 333.3 nM
  surviving fraction: 0.765
E28 [3]; 1000 nM
  surviving fraction: 0.541
E28 [3]; 3000 nM
  surviving fraction: 0.302
E31 [4]; 4.1 nM
  surviving fraction: 0.946
E31 [4]; 12.3 nM
  surviving fraction: 1.1
E31 [4]; 37 nM
  surviving fraction: 0.899
E31 [4]; 111.1 nM
  surviving fraction: 0.922
E31 [4]; 333.3 nM
  surviving fraction: 0.946
E31 [4]; 1000 nM
  surviving fraction: 0.579
E31 [4]; 3000 nM
  surviving fraction: 0.144
E34 [5]; 4.1 nM
  surviving fraction: 1.01
E34 [5]; 12.3 nM
  surviving fraction: 0.922
E34 [5]; 37 nM
  surviving fraction: 0.796
E34 [5]; 111.1 nM
  surviving fraction: 0.981
E34 [5]; 333.3 nM
  surviving fraction: 0.942
E34 [5]; 1000 nM
  surviving fraction: 0.675
E34 [5]; 3000 nM
  surviving fraction: 0.542
E57 [6]; 4.1 nM
  surviving fraction: 1.08
E57 [6]; 12.3 nM
  surviving fraction: 1.02
E57 [6]; 37 nM
  surviving fraction: 0.935
E57 [6]; 111.1 nM
  surviving fraction: 0.931
E57 [6]; 333.3 nM
  surviving fraction: 1.01
E57 [6]; 1000 nM
  surviving fraction: 0.658
E57 [6]; 3000 nM
  surviving fraction: 0.189
FT3469 [7]; 4.1 nM
  surviving fraction: 1.03
FT3469 [7]; 12.3 nM
  surviving fraction: 0.94
FT3469 [7]; 37 nM
  surviving fraction: 0.96
FT3469 [7]; 111.1 nM
  surviving fraction: 0.904
FT3469 [7]; 333.3 nM
  surviving fraction: 0.739
FT3469 [7]; 1000 nM
  surviving fraction: 0.748
FT3469 [7]; 3000 nM
  surviving fraction: 0.648
E13 [8]; 4.1 nM
  phenotypic distance: 0.394
E13 [8]; 12.3 nM
  phenotypic distance: 1.01
E13 [8]; 37 nM
  phenotypic distance: 0.761
E13 [8]; 111.1 nM
  phenotypic distance: 0.76
E13 [8]; 333.3 nM
  phenotypic distance: 1.35
E13 [8]; 1000 nM
  phenotypic distance: 2.55
E13 [8]; 3000 nM
  phenotypic distance: 5.65
E21 [9]; 4.1 nM
  phenotypic distance: 0.618
E21 [9]; 12.3 nM
  phenotypic distance: 1.21
E21 [9]; 37 nM
  phenotypic distance: 0.691
E21 [9]; 111.1 nM
  phenotypic distance: 1.31
E21 [9]; 333.3 nM
  phenotypic distance: 1.88
E21 [9]; 1000 nM
  phenotypic distance: 3.97
E21 [9]; 3000 nM
  phenotypic distance: 5.51
E28 [10]; 4.1 nM
  phenotypic distance: 0.5
E28 [10]; 12.3 nM
  phenotypic distance: 0.951
E28 [10]; 37 nM
  phenotypic distance: 0.608
E28 [10]; 111.1 nM
  phenotypic distance: 0.966
E28 [10]; 333.3 nM
  phenotypic distance: 1.51
E28 [10]; 1000 nM
  phenotypic distance: 3.61
E28 [10]; 3000 nM
  phenotypic distance: 4.49
E31 [11]; 4.1 nM
  phenotypic distance: 0.6
E31 [11]; 12.3 nM
  phenotypic distance: 0.75
E31 [11]; 37 nM
  phenotypic distance: 0.721
E31 [11]; 111.1 nM
  phenotypic distance: 0.569
E31 [11]; 333.3 nM
  phenotypic distance: 1.07
E31 [11]; 1000 nM
  phenotypic distance: 1.39
E31 [11]; 3000 nM
  phenotypic distance: 3.35
E34 [12]; 4.1 nM
  phenotypic distance: 0.814
E34 [12]; 12.3 nM
  phenotypic distance: 0.597
E34 [12]; 37 nM
  phenotypic distance: 0.83
E34 [12]; 111.1 nM
  phenotypic distance: 0.866
E34 [12]; 333.3 nM
  phenotypic distance: 2.22
E34 [12]; 1000 nM
  phenotypic distance: 4.25
E34 [12]; 3000 nM
  phenotypic distance: 3.72
E57 [13]; 4.1 nM
  phenotypic distance: 0.685
E57 [13]; 12.3 nM
  phenotypic distance: 0.929
E57 [13]; 37 nM
  phenotypic distance: 0.554
E57 [13]; 111.1 nM
  phenotypic distance: 0.781
E57 [13]; 333.3 nM
  phenotypic distance: 1.52
E57 [13]; 1000 nM
  phenotypic distance: 3.59
E57 [13]; 3000 nM
  phenotypic distance: 7.66
FT3469 [14]; 4.1 nM
  phenotypic distance: 0.701
FT3469 [14]; 12.3 nM
  phenotypic distance: 1.1
FT3469 [14]; 37 nM
  phenotypic distance: 1.06
FT3469 [14]; 111.1 nM
  phenotypic distance: 1.22
FT3469 [14]; 333.3 nM
  phenotypic distance: 1.84
FT3469 [14]; 1000 nM
  phenotypic distance: 2.27
FT3469 [14]; 3000 nM
  phenotypic distance: 2.46
